For 40 compounds, melting point results are on record in patent US7291641B2, “Derivatives of heterocycles with 5 members, their preparation and their use as medicaments” (Societe de Conseils de Recherches et d'Applications …, priority 1999, dated 2007).

Molecules are shown by their SMILES. Where a name gives a salt, the structure may show the parent alone.

The term melting point denotes the temperature, or range, at which the solid turns liquid.

On to `CC(C)(C)c1ccc(-c2c[nH]c(CCNC(=O)OC3CCCCC3)n2)cc1` [Example 342, cyclohexyl 2-[4-(4-tert-butylphenyl)-1H-imidazol-2-yl]ethylcarbamate], for which the melting point lay in the range of 127 to 130 °C. The value for `CC(C)(C)OC(=O)N[C@H](CCc1ccccc1)c1nc(-c2ccc(-c3ccccc3)cc2)c[nH]1` [Example 167, 4-(2-{(1R)-1-[(tert-butoxycarbonyl)amino]-3-phenylpropyl}-1H-imidazol-4-yl)-1,1′-biphenyl] was 154 to 156 °C; that for `CCCCOC(=O)N[C@H](C)c1nc(-c2ccc(-c3ccccc3)cc2)c[nH]1` [Example 242, 4-(2-{(1R)-1-[(butoxycarbonyl)amino]ethyl}-1H-imidazol-4-yl)-1,1′-biphenyl] was 114 to 116 °C.

Compound `CCCCCCC(N)c1nc(-c2ccccc2)c[nH]1` (racemic) (as salt: hydrochloride) [Example 142, (R,S)-1-(4-phenyl-1H-imidazol-2-yl)heptylamine] gave a melting point of 131 to 134 °C. Under `Cn1cc(-c2ccc(-c3ccccc3)cc2)nc1CN` (as salt: hydrochloride) [Example 55, (4-[1,1′-biphenyl]-4-yl-1-methyl-1H-imidazol-2-yl)methanamine] stands 279 to 280 °C.

In the case of `CCCOC(=O)NCCc1nc(-c2ccc(-c3ccccc3)cc2)c[nH]1` [Example 245, 4-(2-{2-[(propoxycarbonyl)amino]ethyl}-1H-imidazol-4-yl)-1,1′-biphenyl], the melting point was found to be 141.2 °C. `CCN(CC)c1ccc(-c2c[nH]c([C@@H](N)C3CCCCC3)n2)cc1` (as salt: hydrochloride) [Example 310, 4-{2-[(S)-amino(cyclohexyl)methyl]-1H-imidazol-4-yl}-N,N-diethylaniline] yielded a melting point of 216 to 217 °C. The value for `CCCCCC(NCc1ccccc1)c1nc(-c2ccccc2)c[nH]1` (racemic) [Example 202, (R,S)-N-benzyl-1-(4-phenyl-1H-imidazol-2-yl)-1-hexanamine] was 192 to 194 °C; that for `CC(C)(C)OC(=O)NC(C)(C)c1nc(-c2ccccc2)c[nH]1` [Example 127, tert-butyl 1-methyl-1-(4-phenyl-1H-imidazol-2-yl)ethylcarbamate] was 130 to 132 °C; that for `Fc1ccc2c(CC(NCc3ccccc3)c3nc(-c4ccccc4)c[nH]3)c[nH]c2c1` (racemic) [Example 105, (R,S)-N-benzyl-2-(6-fluoro-1H-indol-3-yl)-1-(4-phenyl-1H-imidazol-2-yl)ethanamine] was 98 to 100 °C. The value for `O=C(NCCc1nc(-c2ccc(-c3ccccc3)cc2)c[nH]1)OCC1CCC1` [Example 285, cyclobutylmethyl 2-(4-[1,1′-biphenyl]-4-yl-1H-imidazol-2-yl)ethylcarbamate] was 144 to 145 °C; that for `CCCCOC(=O)NCCc1nc(-c2ccc(-c3cccc(OC)c3)cc2)c[nH]1` [Example 461, butyl 2-[4-(3′-methoxy-1,1′-biphenyl-4-yl)-1H-imidazol-2-yl]ethylcarbamate] was 112 to 113 °C; that for `CCCCC(NC(=O)OC(C)(C)C)c1nc(-c2ccc(-c3ccccc3)cc2)c[nH]1` (racemic) [Example 59, (R,S)-4-(2-{1-[(tert-butoxycarbonyl)amino]pentyl}-1H-imidazol-4-yl)-1,1′-biphenyl] was 172 to 176 °C. The value for `CCCCCCC(N)c1nc(-c2cccc(OC)c2)c[nH]1` (racemic) (as salt: hydrochloride) [Example 69, (R,S)-1-[4-(3-methoxyphenyl)-1H-imidazol-2-yl]heptylamine] was 110 to 112 °C; that for `c1ccc(CN[C@H](Cc2c[nH]c3ccccc23)c2nc(-c3ccccc3)cs2)cc1` [Example 100, (1R)-N-benzyl-2-(1H-indol-3-yl)-1-(4-phenyl-1,3-thiazol-2-yl)ethanamine] was 134 to 136 °C; that for `O=C(N[C@H](Cc1c[nH]c2ccccc12)c1nc(-c2ccccc2)cs1)c1ccccc1` [Example 101, N-[(1R)-2-(1H-indol-3-yl)-1-(4-phenyl-1,3-thiazol-2-yl)-ethyl]benzamide] was 108 to 110 °C. `CCCCOC(=O)NCCc1nc(-c2ccc(-c3ccccc3)cc2)c[nH]1` [Example 31, butyl 2-(4-[1,1′-biphenyl]-4-yl-1H-imidazol-2-yl)ethylcarbamate] yielded a melting point of 136.7 °C. Under `CCCCNC(=O)NCCc1nc(-c2ccc(-c3ccccc3)cc2)c[nH]1` [Example 34] stands 178 °C; under `CCCCCCC(NCc1ccccc1)c1nc(-c2ccc(N(CC)CC)cc2)c[nH]1` (racemic) (as salt: hydrochloride) [Example 230, (R,S)-N-benzyl-N-(1-{4-[4-(diethylamino)phenyl]-1H-imidazol-2-yl}heptyl)amine], 170 °C. In turn, `Cn1cc(CC(N)c2nc(-c3ccccc3)c[nH]2)c2ccccc21` (racemic) (as salt: hydrochloride) [Example 92, (R,S)-2-(1-methyl-1H-indol-3-yl)-1-(4-phenyl-1H-imidazol-2-yl)ethylamine] returned a melting point of 110 to 114 °C. Under `CCCCOC(=O)NCCc1nc(-c2ccc(N3CCCC3)cc2)c[nH]1` [Example 313, butyl 2-[4-(4-pyrrolidin-1-ylphenyl)-1H-imidazol-2-yl]ethylcarbamate] stands 125 °C; under `CN(Cc1nc(-c2ccc(-c3ccccc3)cc2)c[nH]1)C(=O)OC(C)(C)C` [Example 149, 4-(2-{[(tert-butoxycarbonyl)(methyl)amino]methyl}-1H-imidazol-4-yl)-1,1′-biphenyl], 72 to 74 °C. `c1ccc(-c2c[nH]c([C@@H](NC3CCCCC3)C3CCCCC3)n2)cc1` [Example 243, N-[(S)-cyclohexyl(4-phenyl-1H-imidazol-2-yl)methyl]-cyclohexanamine]: the melting point is 240 to 242 °C. The value for `CCCCOC(=O)NCCc1nc(-c2ccc(Br)cc2)c[nH]1` [Example 299, butyl 2-[4-(4-bromophenyl)-1H-imidazol-2-yl]ethylcarbamate] was 99 to 100 °C; that for `CC[C@H](NC(=O)OC(C)(C)C)c1nc(-c2ccc(-c3ccccc3)cc2)c[nH]1` [Example 194, 4-(2-{(1S)-1-[(tert-butoxycarbonyl)amino]propyl}-1H-imidazol-4-yl)-1,1′-biphenyl] was 138 to 140 °C; that for `CCCCCCC(NCc1ccccc1)c1nc(-c2ccccc2)c[nH]1` (racemic) [Example 145, (R,S)-N-benzyl-1-(4-phenyl-1H-imidazol-2-yl)-1-heptanamine] was 160 to 162 °C.

In turn, `Fc1cccc(-c2c[nH]c([C@@H](NC3CCC3)C3CCCCC3)n2)c1` [Example 87, N-{(S)-cyclohexyl[4-(3-fluorophenyl)-1H-imidazol-2-yl]methyl}-cyclobutanamine] had a melting point of 172 to 176 °C. In turn, `c1ccc(CNCc2nc(-c3ccccc3)c(-c3ccccc3)[nH]2)cc1` [Example 163, N-benzyl(4,5-diphenyl-1H-imidazol-2-yl)methanamine] returned a melting point of 160 to 162 °C. Under `C[C@@H](N)c1nc(-c2ccccc2)c[nH]1` (as salt: hydrochloride) [Example 219, (1R)-1-(4-phenyl-1H-imidazol-2-yl)ethanamine] stands 178 to 181 °C; under `c1ccc(CNCCc2nc(-c3ccc(-c4ccccc4)cc3)c[nH]2)cc1` [Example 164, N-benzyl-2-(4-[1,1′-biphenyl]-4-yl-1H-imidazol-2-yl)ethanamine], 174 to 176 °C. Under `CCCCCCC(NC1CCCCC1)c1nc(-c2ccc(F)cc2)c[nH]1` (stereo not shown) [Example 38, N-{1-[4-(4-fluorophenyl)-1H-imidazol-2-yl]heptyl}cyclohexanamine] stands 190 to 192 °C; under `Brc1cccc(-c2c[nH]c([C@@H](NCC3CCCCC3)C3CCCCC3)n2)c1` (as salt: hydrochloride) [Example 306, (S)-1-[4-(3-bromophenyl)-1H-imidazol-2-yl]-1-cyclohexyl-N-(cyclohexylmethyl)methanamine], 206.3 °C. The value for `CCCCOC(=O)NCCc1nc(-c2ccc(-c3ccc(Cl)c(Cl)c3)cc2)c[nH]1` [Example 448, butyl 2-[4-(3′,4′-dichloro-1,1′-biphenyl-4-yl)-1H-imidazol-2-yl]ethylcarbamate] was 137.5 °C; that for `O=C(NCCc1nc(-c2ccc(N3CCCC3)cc2)c[nH]1)OCC1CCCCC1` [Example 326, cyclohexylmethyl 2-[4-(4-pyrrolidin-1-ylphenyl)-1H-imidazol-2-yl]ethylcarbamate] was 128.5 °C. In the case of `NCCCc1nc(-c2ccc(F)cc2)c[nH]1` (as salt: hydrochloride) [Example 343, 3-[4-(4-fluorophenyl)-1H-imidazol-2-yl]propan-1-amine], the melting point lay within 245 to 246 °C. For `CCCCCCC(NC1CCC1)c1nc(-c2ccccc2)c[nH]1` (racemic) [Example 240, (R,S)-N-[1-(4-phenyl-1H-imidazol-2-yl)heptyl]cyclobutanamine], the melting point lay in the range of 148 to 150 °C. The value for `Fc1ccc(-c2c[nH]c([C@H](NCC3CCCCC3)C3CCCCC3)n2)cc1` (as salt: hydrochloride) [Example 318, (R)-1-cyclohexyl-N-(cyclohexylmethyl)-1-[4-(4-fluorophenyl)-1H-imidazol-2-yl]methanamine] was 188.2 °C; that for `CCCCOC(=O)NCCc1nc(-c2ccc(-c3ccc(C#N)cc3)cc2)c[nH]1` [Example 451, butyl 2-[4-(4′-cyano-1,1′-biphenyl-4-yl)-1H-imidazol-2-yl]ethylcarbamate] was 147 °C; that for `CC[C@H](N)c1nc(-c2ccccc2)c(-c2ccccc2)[nH]1` (as salt: hydrochloride) [Example 199, (1S)-1-(4,5-diphenyl-1H-imidazol-2-yl)-1-propanamine] was 224 to 226 °C.

For `c1ccc(CN[C@H](CC2CCCCC2)c2nc(-c3ccccc3)c[nH]2)cc1` [Example 134, (1R)-N-benzyl-2-cyclohexyl-1-(4-phenyl-1H-imidazol-2-yl)ethanamine], the melting point lay within 52 to 54 °C.
